Experimental data reported in paper PMC11374660, “The novel family of Warbicin® compounds inhibits glucose uptake both in yeast and human cells and restrains cancer cell proliferation” (Frontiers in Oncology, 2024).

What was measured:
[1] = test system: A549 lung adenocarcinoma cells; parameters: method as in PMID 22689530; conditions: previously reported; ref [67]; cited from earlier work
[2] = test system: female NMRI-nu mice; assay: In vivo toxicity and tolerability in mice; conditions: for abnormalities / toxic effects in liver and other organs at autopsy: daily i.p., toxic effects at 20 mg/kg WBC-15C and at 20 and 10 mg/kg WBC-11C, not at lower doses; for loss in body weight: daily intraperitoneal injection, 5, 10 and 20 mg/kg; for AST/ALT ratio vs vehicle: sera after 20 days, 5, 10, 20 mg/kg daily i.p.; for blood glucose level vs vehicle: sera post-mortem after 20 days, 5, 10, 20 mg/kg daily i.p.
Protocol: Warbicin ® in vivo toxicity and tolerability was examined by subjecting female NMRI-nu mice (12 weeks old) to daily intraperitoneal injection of either WBC-A, WBC-15C, WBC-4C or WBC-11C. Compounds were dosed at either 5 mg/kg, 10 mg/kg or 20 mg/kg over a period of 20 days. Three mice were used per condition. To evaluate toxicity, change in body weight was registered daily. As a humane endpoint, mice that lost more than 20% of their original body weight were prematurely sacrificed. In addition, liver function was examined by measuring the ratio of the AST to ALT enzyme activities (AbCam ab105135, ab105134) in sera samples collected at the end of the experiment. Furthermore, the blood glucose level in mice sera was determined using the colorimetric GOD-PAP method. Due to their considerable hydrophobicity, the compounds were dissolved in a sterilized 1xPBS, 5% DMSO and 5% Tween-80 solution until a homogenous suspension was obtained that could be administered in a reproducible way.

[3] = Solubility of compound stocks; type: physicochemical; conditions: 100% DMSO
Protocol: WBC-A and the complete structural analog library ( Supplementary Table 2 ) were purchased from different vendors, i.e. Enamine (n = 185), Life Chemicals (n = 10), LabNetwork (n = 4) and Uorsy (n = 4). WBC compounds in general are very insoluble in aqueous solutions, challenging their solubilization. Throughout this work, WBC compounds were always stock aliquoted at 50 mM concentration in 100% DMSO. In many cases, gentle sonication and heating up to 37°C was necessary to completely solubilize the compound stocks. Whereas WBC-A, -15C, -4C and -11C could be dissolved at 50 mM, some structural analogs remained in smooth or rough suspension, regardless of the concentration. Even though it is recommended to aliquot compound stocks, no significant decrease in compound strength by repeated freeze and thaw cycles in DMSO was observed.

[4] = test system: A549 lung adenocarcinoma cells; assay: Proliferation of A549 lung adenocarcinoma cells; type: cell-based, human; conditions: for Selected from primary screen for growth inhibition of A549 cells at 50 µM: RPMI 1 mM glucose; for relative potency in reducing maximal growth rate of A549 cells: 1 mM glucose, 6.25-50 µM; for Selected for having an IC50 ratio (10 mM glucose : 1 mM glucose) of A549 growth higher than WBC-A: ratio of IC50 on 10 mM and 1 mM glucose, compared to WBC-A
Protocol: (§1) For both adherent A549 and MCF10A H-RAS^V12 cell lines, growth curves were established using the IncuCyte® ZOOM technology. By collecting phase contrast images, the IncuCyte® software provides a calculated confluency percentage from which growth curves can be deducted. The cell number/density was measured by calculating the confluency of phase objects (cells) sticking on the bottom of the well. Cells were seeded at a density of 1000 - 1500 cells/well in a Nunc-Edge™ 96-well plate (Thermo Fisher Scientific) and growth was typically measured over 3 to 5 days. For the measurement of apoptosis induction using the MCF10A H-RAS^V12 cell line, the IncuCyte® Caspase-3/7 green dye was added to the medium in the recommended concentration at the beginning of the growth curve experiment. Apoptosis was detected by taking fluorescent images by excitation at 488 nm followed by IncuCyte® software analysis. Cell growth of the KMS-12-PE multiple myeloma cell line, which grows in suspension, was measured by manual cell counting. Cells were initially seeded at a density of 10^4 cells/well and incubated for 4 days after which the cell number was counted. For all cell lines, the same medium used for pregrowth was also used for the growth curve experiment, albeit with different glucose concentrations depending on the experimental design. With compound administration, the final concentration of DMSO never exceeded 0.1%. Typically, at least four technical repeats were included per condition.

[5] = test system: yeast tps1Δ strain; assay: Growth (rescue) of the yeast tps1Δ strain on galactose with or without glucose; type: cell-based, S. cerevisiae; conditions: 100 µM, 2.5 mM glucose
Protocol: Growth curves were made by measuring OD595 in a 96-well plate using the Multiskan™ FC Microplate Photometer (Thermo Fisher Scientific). Typically, for tps1Δ rescue experiments, cells were (pre)grown in Complete Synthetic medium containing 110 mM galactose. Compounds were always added 10 min prior to glucose addition to ensure maximal interaction between the cells and compounds. Cells originating from the preculture were harvested, washed in medium without sugar, after which they were resuspended to an OD of 0.1 in 200 µL of the appropriate medium. At least three technical replicates were included per condition. OD595 was measured at 30°C every 30 min with a 10-min shaking interval.

[6] = test system: MCF10A breast epithelial cell line transformed with H-RAS^V12; assay: Growth and apoptosis of MCF10A H-RAS^V12 cells (IncuCyte); type: cell-based, human; conditions: MCF10A H-RAS^V12, 1 mM glucose, 25 µM
Protocol: as §1

[7] = test system: 2-deoxyglucose uptake in A549 lung adenocarcinoma cells; assay: 2-deoxyglucose uptake in A549 lung adenocarcinoma cells; type: cell-based, human; conditions: for Ki: read-out: Ki for 2-deoxyglucose uptake (Dixon plot)
Protocol: Zero-trans glucose uptake in A549 cells was approximated by measuring the uptake of [1,2-^3H]2-deoxyglucose. For this purpose, A549 cells were pregrown in RPMI medium containing 10 mM glucose in a 24-well plate to a cell density of around 100,000 cells/well. Prior to adding radioactive label, cells were gently washed twice in Krebs-Ringer-HEPES buffer (50 mM HEPES pH 7.4, 137 mM NaCl, 4.7 mM KCl, […], 1.3 mM MgSO4 and 0.1% w/v BSA) at 30°C to remove any residual sugar. RPMI medium without sugar containing the compound intended for treatment, was added to the cells for 15 min at 37°C to allow adequate interaction of the cells with the compound. The uptake measurement was initiated by adding an equal volume of medium containing radiolabeled 2DG. After 3 - 4 min incubation at 37°C, medium was aspirated and cells were gently washed three times with ice-cold Krebs-Ringer-HEPES buffer. Cells were lysed by adding 200 µL of ice-cold 0.1 M NaOH solution and incubating the plate for 10 min at 37°C. Cell lysates were transferred to scintillation vials for subsequent scintillation counting. For blank measurements, cells were incubated with 50 µM Cytochalasin B prior to the uptake measurement.

[8] = test system: A549 lung adenocarcinoma cells; assay: Glucose consumption and lactate production over 8 h, A549; type: cell-based, human; conditions: A549, 25 µM, 1 mM glucose
Protocol: The influence of WBC compounds on glucose consumption over a longer time period was studied in the A549 adenocarcinoma and KMS-12-PE multiple myeloma cell lines. As such, different parameters needed to be optimized depending on whether cells were adherent or in suspension. As such, A549 cells were incubated at 125,000 cells/well in a 24-well plate in 300 µL RPMI medium for 8 h. For the KMS-12-PE cell line, 100,000 cells/well were incubated in 100 µL RPMI medium in a 96-well plate for 8 h. Medium was collected, spun down and HPLC-analyzed for measuring glucose and lactate levels. Metabolite levels were corrected for cell number, which always varied little over the span of 8 h. For every condition, at least 4 technical repeats were included.

| SMILES | inhibition of A549 proliferation [1] | abnormalities / toxic effects in liver and other organs at autopsy ([2]; 20 days) | loss in body weight ([2]; nude mice, 20 days) | AST/ALT ratio vs vehicle [2] | blood glucose level vs vehicle [2] | concentration at which compound could be dissolved [3] [µM] | Selected from primary screen for growth inhibition of A549 cells at 50 µM [4] | relative potency in reducing maximal growth rate of A549 cells [4] | Selected for having an IC50 ratio (10 mM glucose : 1 mM glucose) of A549 growth higher than WBC-A [4] | Rescue of the tps1∆ strain on 2.5 mM glucose at 100 µM [5] | inhibition of proliferation [6] | type of inhibition of 2-deoxyglucose uptake (Lineweaver-Burk) [7] | K'i for 2-deoxyglucose uptake ([7]; Dixon plot (Ki = K'i) or Cornish-Bowden plot (WBC-11C)) [µM] | Ki [7] [µM] | inhibition of glucose consumption and lactate production [8] | adipose tissue at autopsy ([2]; nude mice, daily i.p., 5, 10 and 20 mg/kg, 20 days, visual inspection vs vehicle) |
| --- | --- | --- | --- | --- | --- | --- | --- | --- | --- | --- | --- | --- | --- | --- | --- | --- |
| O=C(Oc1cccc(F)c1OC(=O)c1cccc(O)c1)c1cccc(O)c1 [WZB-117] | inhibition of its proliferation |  |  |  |  |  |  |  |  |  |  |  |  |  |  |  |
| Cc1nc(NCC(=O)NCc2ccco2)c2c(-c3ccccc3)csc2n1 [WBC-4C] |  | No other abnormalities | one single mouse treated with 20 mg/kg WBC-4C that was sacrificed at day 19 because of 20% weight loss | No significant difference | No significant difference | ≥ 50000 | Yes | intermediate potency | Higher IC50 ratio and confirmed | No | highest potency | noncompetitive | 26.75 | 26.8 | inhibited glucose consumption and lactate production |  |
| Cc1nc(NCC(=O)Nc2ccccc2Br)c2c(-c3cccs3)csc2n1 [WBC-15C] |  | toxic effects were seen in the liver and other organs | no significant loss in body weight | No significant difference | No significant difference | ≥ 50000 | Yes | least potent | Higher IC50 ratio and confirmed | No |  | competitive |  | 33.8 | inhibited glucose consumption and lactate production | adipose tissue was also observed in between the intestines |
